Experimental data from patent publication EP2603503B1, “DABIGATRAN ETEXILATE BISMESYLATE SALT, SOLID STATE FORMS AND PROCESS FOR PREPARATION THEREOF” (ratiopharm GmbH, priority 2010, dated 2012).
≈ marks a conversion by molar mass, not a printed value. Where a name gives a salt, the structure may show the parent alone. Read-outs that look alike come from different tables or passages of the source. One block for each compound: values may come before it.

Legend:
[1] = temperature not stated; cited from earlier work
solubility in water = assay type: physicochemical
[2] = storage stability (temperature / relative humidity); assay type: physicochemical; settings: at least two weeks

Structure (SMILES): CCCCCCOC(=O)NC(=N)c1ccc(NCc2nc3cc(C(=O)N(CCC(=O)OCC)c4ccccn4)ccc3n2C)cc1 [Dabigatran etexilate, Ethyl 3-[(2-{[4-(hexyloxycarbonylaminoiminomethyl)phenylamino]methyl}-1-methyl-1H-benzimidazole-5-carbonyl)pyridin-2-ylamino]propionate base]
solubility in water [1]: 1.8 mg/mL (≈ 2870 µM)

solubility in water at 37 °C (solubility in water): 33.9 mg/mL
stable upon storage ([2]; about 25°C, relative humidity (RH) about 60%): stable
stable upon storage ([2]; about 40°C, RH about 75%): stable
Structure (SMILES): CCCCCCOC(=O)NC(=N)c1ccc(NCc2nc3cc(C(=O)N(CCC(=O)OCC)c4ccccn4)ccc3n2C)cc1 [Dabigatran etexilate bismesylate]

solubility in water at 37 °C (solubility in water; mesylate salt): 14.7 mg/mL
Structure (SMILES): CCCCCCOC(=O)NC(=N)c1ccc(NCc2nc3cc(C(=O)N(CCC(=O)OCC)c4ccccn4)ccc3n2C)cc1 [Dabigatran etexilate monomesylate, ethyl 3-{[(2-{[(4-{N'-[(hexyloxy)carbonyl]carbamimidoyl}phenyl)amino]methyl}-1-methyl-1H-benzimid-azol-5-yl)carbonyl] (2-pyridinyl)amino}propanoate mesylate salt, reference compound]
